Measurements from publication PMC5218480 (PLoS ONE, 2017).

Tested on: MV-4-11 cells
Assay: Gene expression microarray analysis (Affymetrix PrimeView) and GSEA
Format: cell-based, human
Parameters: RFU PODN (11730768_x_at) / Fold change /veh PODN (11730768_x_at) / RFU LINC00158 (11744669_a_at) / Fold change /veh LINC00158 (11744669_a_at) / RFU DUSP10 (11751237_a_at) / Fold change /veh DUSP10 (11751237_a_at) / RFU ID3 (11757404_x_at) / Fold change /veh ID3 (11757404_x_at) / RFU PLEKHG5 (11737974_s_at) / Fold change /veh PLEKHG5 (11737974_s_at) / RFU LRRC4B (11730491_at) / Fold change /veh LRRC4B (11730491_at) / RFU GIMAP4 (11747438_a_at) / Fold change /veh GIMAP4 (11747438_a_at) / RFU KRT8 (11758183_x_at) / Fold change /veh KRT8 (11758183_x_at) / RFU CNN1 (11734310_a_at) / Fold change /veh CNN1 (11734310_a_at) / RFU VPS37D (11726825_at) / Fold change /veh VPS37D (11726825_at) / RFU C10orf10 (11716522_x_at) / Fold change /veh C10orf10 (11716522_x_at) / RFU KIR2DL2 /// KIR2DL4 /// KIR2DL5A /// KIR2DL5B /// KIR2DS1 /// KIR2DS2 /// KIR2DS3 /// KIR2DS4 /// KIR3DL3 /// KIR3DL3 /// KIR3DS1 (11738374_at) / Fold change /veh KIR2DL2 /// KIR2DL4 /// KIR2DL5A /// KIR2DL5B /// KIR2DS1 /// KIR2DS2 /// KIR2DS3 /// KIR2DS4 /// KIR3DL3 /// KIR3DL3 /// KIR3DS1 (11738374_at) / RFU C1QL1 (11718748_at) / Fold change /veh C1QL1 (11718748_at) / RFU TMPRSS4 (11747572_a_at) / Fold change /veh TMPRSS4 (11747572_a_at) / RFU HAMP (11756126_x_at) / Fold change /veh HAMP (11756126_x_at) / RFU RNFT2 (11725882_a_at) / Fold change /veh RNFT2 (11725882_a_at) / RFU NR4A2 (11747474_a_at) / Fold change /veh NR4A2 (11747474_a_at) / RFU ABCC12 (11746883_a_at) / Fold change /veh ABCC12 (11746883_a_at) / RFU TMEM136 (11760407_x_at) / Fold change /veh TMEM136 (11760407_x_at) / RFU CLDN22 /// WWC2 (11732394_at) / Fold change /veh CLDN22 /// WWC2 (11732394_at) / RFU HLA-DPB1 (11760878_x_at) / Fold change /veh HLA-DPB1 (11760878_x_at) / RFU SPINT1 (11716480_a_at) / Fold change /veh SPINT1 (11716480_a_at) / RFU GAP43 (11754022_s_at) / Fold change /veh GAP43 (11754022_s_at) / RFU A4GNT (11735810_at) / Fold change /veh A4GNT (11735810_at) / RFU PRB3 (11715151_x_at) / Fold change /veh PRB3 (11715151_x_at) / RFU TUBB4B (11761932_at) / Fold change /veh TUBB4B (11761932_at) / RFU CAPN14 (11732068_a_at) / Fold change /veh CAPN14 (11732068_a_at) / RFU TMCC2 (11721928_a_at) / Fold change /veh TMCC2 (11721928_a_at) / RFU IRGQ (11745062_a_at) / Fold change /veh IRGQ (11745062_a_at) / RFU FAM174B (11720279_a_at) / Fold change /veh FAM174B (11720279_a_at) / RFU TMPRSS4 (11748680_a_at) / Fold change /veh TMPRSS4 (11748680_a_at) / RFU FAM212B (11763350_a_at) / Fold change /veh FAM212B (11763350_a_at) / RFU PLEKHG5 (11743358_a_at) / Fold change /veh PLEKHG5 (11743358_a_at) / RFU ZSCAN30 (11745921_a_at) / Fold change /veh ZSCAN30 (11745921_a_at) / RFU CMKLR1 (11741424_a_at) / Fold change /veh CMKLR1 (11741424_a_at) / RFU LOC101060620 /// MAPK8IP1 (11723275_at) / Fold change /veh LOC101060620 /// MAPK8IP1 (11723275_at) / RFU SPTSSB (11747773_x_at) / Fold change /veh SPTSSB (11747773_x_at) / RFU PRSS12 (11739890_at) / Fold change /veh PRSS12 (11739890_at) / RFU BIN1 (11741810_x_at) / Fold change /veh BIN1 (11741810_x_at) / RFU WNT11 (11732464_a_at) / Fold change /veh WNT11 (11732464_a_at) / RFU C10orf10 (11716521_a_at) / Fold change /veh C10orf10 (11716521_a_at) / RFU C5orf56 (11738089_at) / Fold change /veh C5orf56 (11738089_at) / RFU CYB561 (11721691_x_at) / Fold change /veh CYB561 (11721691_x_at) / RFU ANKRD19P (11752326_a_at) / Fold change /veh ANKRD19P (11752326_a_at) / RFU OR2T12 /// OR2T33 /// OR2T8 (11738714_s_at) / Fold change /veh OR2T12 /// OR2T33 /// OR2T8 (11738714_s_at) / RFU VCAN (11748164_a_at) / Fold change /veh VCAN (11748164_a_at) / RFU JSRP1 (11732532_at) / Fold change /veh JSRP1 (11732532_at) / RFU KRTAP10-11 (11738290_x_at) / Fold change /veh KRTAP10-11 (11738290_x_at) / RFU MYO3A (11730013_a_at) / Fold change /veh MYO3A (11730013_a_at) / RFU EBF3 (11725865_a_at) / Fold change /veh EBF3 (11725865_a_at) / RFU CAMK2N1 (11719241_x_at) / Fold change /veh CAMK2N1 (11719241_x_at) / RFU C5orf56 (11738088_a_at) / Fold change /veh C5orf56 (11738088_a_at) / RFU OLFML3 (11715873_a_at) / Fold change /veh OLFML3 (11715873_a_at) / RFU LOC100653217 /// NTM (11731650_a_at) / Fold change /veh LOC100653217 /// NTM (11731650_a_at) / RFU MAPK11 (11762145_a_at) / Fold change /veh MAPK11 (11762145_a_at) / RFU FIZ1 (11724087_x_at) / Fold change /veh FIZ1 (11724087_x_at) / RFU OASL (11726364_x_at) / Fold change /veh OASL (11726364_x_at) / RFU SOX15 (11748057_x_at) / Fold change /veh SOX15 (11748057_x_at) / RFU CD79A (11719716_a_at) / Fold change /veh CD79A (11719716_a_at) / RFU HIST1H1D (11736915_at) / Fold change /veh HIST1H1D (11736915_at) / RFU CASKIN2 (11723855_a_at) / Fold change /veh CASKIN2 (11723855_a_at) / RFU LOC730098 (11760151_x_at) / Fold change /veh LOC730098 (11760151_x_at) / RFU OR4N2 (11742367_at) / Fold change /veh OR4N2 (11742367_at) / RFU PRRT2 (11749266_a_at) / Fold change /veh PRRT2 (11749266_a_at) / RFU SNX32 (11753110_a_at) / Fold change /veh SNX32 (11753110_a_at) / RFU CDHR5 (11726645_a_at) / Fold change /veh CDHR5 (11726645_a_at) / RFU RCAN1 (11760418_a_at) / Fold change /veh RCAN1 (11760418_a_at) / RFU FAM167A (11723789_a_at) / Fold change /veh FAM167A (11723789_a_at) / RFU FAM26E (11764081_at) / Fold change /veh FAM26E (11764081_at) / RFU ISYNA1 (11749810_s_at) / Fold change /veh ISYNA1 (11749810_s_at) / RFU ACY1 (11761880_at) / Fold change /veh ACY1 (11761880_at) / RFU 11764098_at / Fold change /veh 11764098_at / RFU SAMD14 (11745864_x_at) / Fold change /veh SAMD14 (11745864_x_at) / RFU NPB (11741838_a_at) / Fold change /veh NPB (11741838_a_at) / RFU TMPRSS6 (11731388_a_at) / Fold change /veh TMPRSS6 (11731388_a_at) / RFU KRTAP10-2 (11738614_at) / Fold change /veh KRTAP10-2 (11738614_at) / RFU ARHGAP8 /// PRR5-ARHGAP8 (11727945_x_at) / Fold change /veh ARHGAP8 /// PRR5-ARHGAP8 (11727945_x_at) / RFU KRTAP5-7 /// NADSYN1 (11734609_at) / Fold change /veh KRTAP5-7 /// NADSYN1 (11734609_at) / RFU RASL12 (11751679_a_at) / Fold change /veh RASL12 (11751679_a_at) / RFU CDKN2B (11736163_a_at) / Fold change /veh CDKN2B (11736163_a_at) / RFU PRF1 (11729649_at) / Fold change /veh PRF1 (11729649_at) / RFU, ZNF638 /// ZNF638-IT1 / Fold change vs veh, ZNF638 /// ZNF638-IT1 / RFU, PANK3 / Fold change vs veh, PANK3 / RFU, SH3YL1 / Fold change vs veh, SH3YL1 / RFU, ZEB2 / Fold change vs veh, ZEB2 / RFU, NRIP1 / Fold change vs veh, NRIP1 / RFU, PTTG1IP / Fold change vs veh, PTTG1IP / RFU, CAPN2 / Fold change vs veh, CAPN2 / RFU, MED14 / Fold change vs veh, MED14 / RFU, SNORA58 / Fold change vs veh, SNORA58 / RFU, C1orf63 / Fold change vs veh, C1orf63 / RFU, LRRFIP1 / Fold change vs veh, LRRFIP1 / RFU, NDUFAF7 / Fold change vs veh, NDUFAF7 / RFU, SLC12A2 / Fold change vs veh, SLC12A2 / RFU, IBTK / Fold change vs veh, IBTK / RFU, ESF1 / Fold change vs veh, ESF1 / Fold change vs veh, TMEM50B / RFU, TAOK1 / Fold change vs veh, TAOK1 / RFU, ACBD3 / Fold change vs veh, ACBD3 / RFU, TMA16 / Fold change vs veh, TMA16 / RFU, RWDD3 / Fold change vs veh, RWDD3 / RFU, BCAT1 / Fold change vs veh, BCAT1 / RFU, EDEM3 / Fold change vs veh, EDEM3 / RFU, TMEM33 / Fold change vs veh, TMEM33 / RFU, WDR75 / Fold change vs veh, WDR75 / RFU, AHCTF1 / Fold change vs veh, AHCTF1 / RFU, TFRC / Fold change vs veh, TFRC / RFU, ZDHHC17 / Fold change vs veh, ZDHHC17 / RFU, NOM1 / Fold change vs veh, NOM1 / RFU, ARL8B / Fold change vs veh, ARL8B / RFU, ZBTB11 / Fold change vs veh, ZBTB11 / RFU, TAMM41 / Fold change vs veh, TAMM41 / RFU, KIAA1704 /// LOC100996395 / Fold change vs veh, KIAA1704 /// LOC100996395 / RFU, ING1 / Fold change vs veh, ING1 / RFU, TRMT61B / Fold change vs veh, TRMT61B / RFU, FUBP3 / Fold change vs veh, FUBP3 / RFU, TP53 / Fold change vs veh, TP53 / RFU, TNKS2 / Fold change vs veh, TNKS2 / RFU, ZFP14 / Fold change vs veh, ZFP14 / RFU, ACTR2 / Fold change vs veh, ACTR2 / RFU, PPP3R1 / Fold change vs veh, PPP3R1 / RFU, PIK3R1 / Fold change vs veh, PIK3R1 / RFU, HNRNPA1 / Fold change vs veh, HNRNPA1 / RFU, RNF170 / Fold change vs veh, RNF170 / RFU, ZNF28 / Fold change vs veh, ZNF28 / RFU, RNGTT / Fold change vs veh, RNGTT / RFU, OGT / Fold change vs veh, OGT / RFU, BRD1 / Fold change vs veh, BRD1 / RFU, MARS / Fold change vs veh, MARS / RFU, ZNF655 / Fold change vs veh, ZNF655 / RFU, FAHD1 / Fold change vs veh, FAHD1 / RFU, BDP1 / Fold change vs veh, BDP1 / RFU, LRRCC1 / Fold change vs veh, LRRCC1 / RFU, ARID1A / Fold change vs veh, ARID1A / RFU, ZNF146 / Fold change vs veh, ZNF146 / RFU, ZNF330 / Fold change vs veh, ZNF330 / RFU, GPN3 / Fold change vs veh, GPN3 / RFU, C9orf123 / Fold change vs veh, C9orf123 / RFU, N4BP2L2 / Fold change vs veh, N4BP2L2 / RFU, ARFIP1 / Fold change vs veh, ARFIP1 / RFU, FAM179B / Fold change vs veh, FAM179B / RFU, BCL10 / Fold change vs veh, BCL10 / RFU, UHRF1BP1L / Fold change vs veh, UHRF1BP1L / RFU, BET1 / Fold change vs veh, BET1 / RFU, CNOT2 / Fold change vs veh, CNOT2 / RFU, ZNF268 / Fold change vs veh, ZNF268 / Fold change vs veh, ZNF507 / RFU, DGCR2 / Fold change vs veh, DGCR2 / RFU, WDSUB1 / Fold change vs veh, WDSUB1 / Fold change vs veh, HSP90B1 /// MIR3652 / RFU, ADSS / Fold change vs veh, ADSS / RFU, GK / Fold change vs veh, GK / RFU, ZNF148 / Fold change vs veh, ZNF148 / RFU, TAF9 / Fold change vs veh, TAF9 / RFU, SLC1A5 / Fold change vs veh, SLC1A5 / RFU, SLMO2 / Fold change vs veh, SLMO2 / RFU, ABCC4 / Fold change vs veh, ABCC4 / RFU, LOC101060439 /// RAP1B / Fold change vs veh, LOC101060439 /// RAP1B / RFU, RFX7 / Fold change vs veh, RFX7 / RFU, GTPBP10 / Fold change vs veh, GTPBP10 / RFU, CNEP1R1 / Fold change vs veh, CNEP1R1 / RFU, BIVM-ERCC5 /// ERCC5 / Fold change vs veh, BIVM-ERCC5 /// ERCC5 / RFU, ILF3 / Fold change vs veh, ILF3 / RFU 11762660_at / Fold change /veh 11762660_at / RFU VCAN (11757783_s_at) / Fold change /veh VCAN (11757783_s_at) / RFU DDX43 (11728927_at) / Fold change /veh DDX43 (11728927_at) / RFU KRT8 (11758188_x_at) / Fold change /veh KRT8 (11758188_x_at) / RFU NKD1 (11759106_at) / Fold change /veh NKD1 (11759106_at) / RFU SRD5A1 (11742802_a_at) / Fold change /veh SRD5A1 (11742802_a_at) / RFU TPSAB1 /// TPSB2 (11721975_s_at) / Fold change /veh TPSAB1 /// TPSB2 (11721975_s_at) / RFU GSTM3 (11746129_a_at) / Fold change /veh GSTM3 (11746129_a_at) / RFU IL23R (11737362_x_at) / Fold change /veh IL23R (11737362_x_at) / RFU TMEM51 (11727254_a_at) / Fold change /veh TMEM51 (11727254_a_at) / RFU PIWIL2 (11732686_x_at) / Fold change /veh PIWIL2 (11732686_x_at) / RFU ORM1 (11744905_x_at) / Fold change /veh ORM1 (11744905_x_at) / RFU CCDC152 (11743942_at) / Fold change /veh CCDC152 (11743942_at) / RFU ECM1 (11717891_a_at) / Fold change /veh ECM1 (11717891_a_at) / RFU IL23R (11748794_a_at) / Fold change /veh IL23R (11748794_a_at) / RFU TNFAIP8L3 (11732012_x_at) / Fold change /veh TNFAIP8L3 (11732012_x_at) / RFU MBOAT4 (11741988_at) / Fold change /veh MBOAT4 (11741988_at) / RFU 11764193_at / Fold change /veh 11764193_at / RFU TMEM53 (11763286_at) / Fold change /veh TMEM53 (11763286_at) / RFU MAGEB2 (11727129_at) / Fold change /veh MAGEB2 (11727129_at) / RFU TMEM200A (11744735_a_at) / Fold change /veh TMEM200A (11744735_a_at) / RFU CCDC152 (11751479_a_at) / Fold change /veh CCDC152 (11751479_a_at) / RFU FAM211A (11726209_a_at) / Fold change /veh FAM211A (11726209_a_at) / RFU RGS16 (11746705_a_at) / Fold change /veh RGS16 (11746705_a_at) / RFU VCAN (11755009_s_at) / Fold change /veh VCAN (11755009_s_at) / RFU RHOB (11743442_s_at) / Fold change /veh RHOB (11743442_s_at) / RFU RGS16 (11720943_a_at) / Fold change /veh RGS16 (11720943_a_at) / RFU RGS16 (11720944_at) / Fold change /veh RGS16 (11720944_at) / RFU, VPS4B / Fold change vs veh, VPS4B / RFU, CREB1 / Fold change vs veh, CREB1 / RFU, DNAJC13 / Fold change vs veh, DNAJC13 / RFU, GNAQ / Fold change vs veh, GNAQ / RFU, CDK5R1 / Fold change vs veh, CDK5R1 / RFU, ZRANB3 / Fold change vs veh, ZRANB3 / RFU, CUL4A / Fold change vs veh, CUL4A / RFU, CCNY / Fold change vs veh, CCNY / RFU, UFL1 / Fold change vs veh, UFL1 / RFU, COG3 / Fold change vs veh, COG3 / RFU, DIAPH2 / Fold change vs veh, DIAPH2 / RFU, SKA2 / Fold change vs veh, SKA2 / RFU, AFF3 / Fold change vs veh, AFF3 / RFU, LMF1 / Fold change vs veh, LMF1 / RFU, IPO11 / Fold change vs veh, IPO11 / RFU, DFFB / Fold change vs veh, DFFB / RFU, FOXP1 / Fold change vs veh, FOXP1 / RFU, CARD8 / Fold change vs veh, CARD8 / RFU, STRN3 / Fold change vs veh, STRN3 / RFU, ADK / Fold change vs veh, ADK / RFU, RASSF2 / Fold change vs veh, RASSF2 / RFU, WIPF1 / Fold change vs veh, WIPF1 / RFU, LARP1B / Fold change vs veh, LARP1B / RFU, RASA1 / Fold change vs veh, RASA1 / RFU, RB1 / Fold change vs veh, RB1 / RFU, PPFIA1 / Fold change vs veh, PPFIA1 / RFU, MAT2A / Fold change vs veh, MAT2A / RFU, CCT5 / Fold change vs veh, CCT5 / RFU, WDR92 / Fold change vs veh, WDR92 / RFU, CUX1 / Fold change vs veh, CUX1 / RFU, TTC7A / Fold change vs veh, TTC7A / RFU, TMEM135 / Fold change vs veh, TMEM135 / RFU, DEPTOR / Fold change vs veh, DEPTOR / RFU, CPM / Fold change vs veh, CPM / RFU, DNAJB6 / Fold change vs veh, DNAJB6 / RFU, CACNA2D3 / Fold change vs veh, CACNA2D3 / RFU, DTX4 / Fold change vs veh, DTX4 / RFU, TFCP2 / Fold change vs veh, TFCP2 / RFU, GMCL1 /// GMCL1P1 / Fold change vs veh, GMCL1 /// GMCL1P1 / RFU, AEBP2 / Fold change vs veh, AEBP2 / RFU, SNHG1 /// SNORD22 /// SNORD25 /// SNORD26 /// SNORD27 /// SNORD28 /// SNORD29 /// SNORD31 / Fold change vs veh, SNHG1 /// SNORD22 /// SNORD25 /// SNORD26 /// SNORD27 /// SNORD28 /// SNORD29 /// SNORD31 / Fold change (Aza/veh), C12orf56 (ProbeSet 11735607_a_at) / Fold change (ACY-1035/veh), C12orf56 (ProbeSet 11735607_a_at) / Fold change (Aza/veh), FGFR1OP (ProbeSet 11751329_s_at) / Fold change (ACY-1035/veh), FGFR1OP (ProbeSet 11751329_s_at) / Fold change (Aza/veh), VPS36 (ProbeSet 11739960_a_at) / Fold change (ACY-1035/veh), VPS36 (ProbeSet 11739960_a_at) / RFU SYPL1 (11715823_x_at) / Fold change /veh SYPL1 (11715823_x_at) / RFU IGFBP7 (11715501_s_at) / Fold change /veh IGFBP7 (11715501_s_at) / RFU REEP3 (11722064_at) / Fold change /veh REEP3 (11722064_at) / RFU IGLL1 (11728026_x_at) / Fold change /veh IGLL1 (11728026_x_at): dose or concentration left out as unconfirmed
Settings: ProbeSet 11732277_a_at; LIST D

## Nc1ncn([C@@H]2O[C@H](CO)[C@@H](O)[C@H]2O)c(=O)n1 [azacitidine]
  RFU, FOXP1: 363.93 RFU
